By IC50 is commonly meant the concentration that inhibits the measured activity by half.

Structures are written as SMILES.

The text below walks through data of ChEMBL document CHEMBL5725267, “Enhancer of zeste homolog 2 inhibitors” (2016).

This test is described as follows: Scintillation Proximity Assay (SPA): Protocol 2: Compounds contained herein were evaluated for their ability to inhibit the methyltransferase activity of EZH2 within the PRC2 complex. Human PRC2 complex was prepared by co-expressing each of the 5 member proteins (FLAG-EZH2, EED, SUZ12, RbAp48, AEBP2) in Sf9 cells followed by co-purification. Enzyme activity was measured in a scintillation proximity assay (SPA) where a tritiated methyl group is transferred from 3H-SAM to a lysine residue on a biotinylated, unmethylated peptide substrate derived from histone H3. The peptides were captured on streptavidin-coated SPA beads and the resulting signal was read on a ViewLux plate reader.Part A. Compound Preparation 4. Prepare 10 mM stock of compounds from solid in 100% DMSO. 5. Set up an 11-point serial dilution (1:4 dilution, top concentration 10 mM) in 100% DMSO for each test compound in a 384 well plate leaving columns 6 and 18 for DMSO controls. 6. Dispense 10 nL of compound from the dilution plate into reaction plates (Corning, 384-well polystyrene NBS, Cat#3673). Percent inhibition was calculated relative to the DMSO control for each compound concentration and the resulting values were fit using standard IC50 fitting parameters within the ABASE data fitting software package. It is filed as biochemical.
For the compound `C/C=C(\CCCN1CCC(N(C)C)CC1)c1scc(C(=O)NCc2c(C)cc(C)[nH]c2=O)c1C`, the IC50 was 200 nM.

On to `C/C=C(/c1scc(C(=O)NCc2c(C)cc(C)[nH]c2=O)c1C)[C@H]1CC[C@H](NC(=O)OC(C)(C)C)CC1`, for which the half-maximal inhibitory concentration (IC50) was 100 nM.

As to `C/C=C(\CCCN1CCN(C)CC1)c1scc(C(=O)NCc2c(C)cc(C)[nH]c2=O)c1C`, the IC50 was 251 nM.

As for `C/C=C(\CCN1CCOCC1)c1scc(C(=O)NCc2c(C)cc(C)[nH]c2=O)c1C`, the IC50 is 1000 nM.
